The values that follow come from patent US5021597A, “Novel acrylic acid salts, a process for their preparation, pharmaceutical compositions containing them and their use in the medicine” (Richter Gedeon Vegyeszeti Gyar Rt., priority 1989, dated 1991).

Structures can show the parent of a compound that is named as a salt.

One assay relates to gastric acid secretion. Nature of the assay: inhibition of gastric acid secretion by using pylorus ligature (Shay). Type of assay: in vivo, Wistar rat. The note with it: pretreatment 30 min; for ED50 p.o.: 240 min; for % Inhibition in the amount of the acid at a dose of 25 mg/kg p.o.: Table 4, female Wistar rats. The protocol:
(2) Assay of the inhibition of gastric acid secretion by using pylorus ligature [Shay et al., Gastroenterology, 5, 43-61 (1945)]
Before ligating the pylorus the test compounds suspended with Tween were given orally at a volume of 0.5 ml per […] of body weight to female Wistar rats fasted previously for 20 hours. The animals were sacrificed 4 hours after the operation, and the amount of the acid in the stomach was measured by titration with 0.01N sodium hydroxide solution in the presence of phenolphtalein indicator. The pH value of the content of the stomach was measured by using a pH-meter (Radelkis, Type OP-211/1).

Assay [1] deals with gastric injuries induced by acidic alcohol. Nature of the assay: gastric injuries induced by acidic alcohol (cytoprotection). Type of assay: in vivo, rat. The note with it: acidic alcohol gastric injury, female rats, pretreatment 30 min; for % Inhibition at a dose of 10 mg/kg p.o.: Table 2. The protocol: (1) Assay of gastric injuries induced by acidic alcohol [A. Robert, Gastroenterology, 77, 761-767 (1979)]
Female rats weighing about 120 to 150 g fasted for 24 hours were used in this test. Test compounds suspended with Tween 80 were given orally to the animals through an intragastric tube. After a certain period (pretreatmenttime) acidic alcohol was given through the intragastric tube at a dose or 0.5 ml per 100 g of body weight. The animals were sacrificed after 1 hour, their stomach was removed and incised along the great curve. The length of the reddish-brown strips (haemorrhagic lesions) was measured and the mean total length per stomach was calculated. The biological activity of the test compounds was given compared to the control group.

For the next assay, the system named is Campylobacter pylori. Nature of the assay: activity against Campylobacter pylori by agar diffusion and agar dilution assays. As to conditions: Helicobacter pylori, Campylobacter pylori cultures isolated from 5 different ulcerous patients, read-out: MIC (minimal inhibitory concentration). It counts as cell-based. The method, then: The activity of the compounds of the present invention against Campylobacter pylori was investigated by agar diffusion and agar dilution assays. The experiments were carried out with Campylobacter pylori cultures isolated from 5 different ulcerous patients.
A general note: A growth-free zone around the sample is the usual read-out of agar diffusion tests.

With `O=C(O)/C=C/S(=O)(=O)c1ccccc1` [C, monoethanolamine salt of 3-phenylsulfonyl-2(E)-propenoic acid], the ED50 p.o. is on record as 11.0 mg/kg with gastric acid secretion (Table 3, female Wistar rats) and 3.6 mg/kg in assay [1] (Table 1).

On to `O=C(O)/C=C/S(=O)(=O)c1ccccc1` [D, bismuth bis [3-phenylsulfonyl-2(E)-propenoate] chloride hexahydrate], for which the ED50 p.o. in the assay with gastric acid secretion (Table 3, female Wistar rats) is 12.0 mg/kg; in assay [1] (Table 1), 3.1 mg/kg. Moreover, in the assay with Campylobacter pylori, the MIC lay in the range of 250 to 1000 µg/mL.

As usually defined, the ED50 is the dose that gives a 50% effect, or the effect in half of the subjects. As to `O=C(O)/C=C/S(=O)(=O)c1ccccc1` [A, bismuth tris [3-phenylsulfonyl-2(E)-propenoate] pentahydrate], the ED50 is 8.6 mg/kg in the assay with gastric acid secretion (Rattus norvegicus, po, 4 h, Table 3, female Wistar rats) and 4 mg/kg in assay [1] (Rattus norvegicus, po, Table 1).

As for `O.O.O.O.O=C([O-])/C=C/S(=O)(=O)c1ccccc1.O=C([O-])/C=C/S(=O)(=O)c1ccccc1.[Zn+2]` [H, zinc bis [3-phenylsulfonyl-2(E)-propenoate] tetrahydrate], the ED50 p.o. with gastric acid secretion (Table 3, female Wistar rats) stood at 8.0 mg/kg; in assay [1] (Table 1) it was 3.2 mg/kg.

In general, % Inhibition refers to the share of the control response that was lost under treatment. For the compound `O=C(O)/C=C/S(=O)(=O)c1ccccc1` [E, (S)-arginine salt of 3-phenylsulfonyl-2(E)-propenoic acid], in the assay on gastric acid secretion, the “% Inhibition in the amount of the acid at a dose of 25 mg/kg p.o.” value (shortened to “% Inhibition in the amount … of 25 mg/kg p.o.”) is given as 56%. Also, the “% Inhibition at a dose of 10 mg/kg p.o.” value in assay [1] stood at 73%.

Regarding `O=C(O)/C=C/Sc1ccccc1` [G, bismuth tris [3-phenylthio-2(E)-propenoate] trihydrate], in the assay with gastric acid secretion, the “% Inhibition in the amount … of 25 mg/kg p.o.” value is recorded as 15%.

On to “zinc bis [phenylthio-2(Z)-propenoate] hydrate”, for which the “% Inhibition at a dose of 10 mg/kg p.o.” value in assay [1] came to 61%.

In the case of `O=C(O)/C=C/S(=O)(=O)c1ccccc1` [F, (S)-lysine salt of 3-phenylsulfonyl-2(E)-propenoic acid], in the assay on gastric acid secretion, the “% Inhibition in the amount … of 25 mg/kg p.o.” value is 50%. Further, the ED50 p.o. in assay [1] (Table 1) came out at 4.1 mg/kg.
